Here are results for seven molecules from US20250263677A1, “BIOCATALYTIC USE OF NONHEME IRON PROTEINS FOR MOLECULAR FUNCTIONALIZATION” (The Johns Hopkins University, priority 2022, published 2025).

Format in all cases: biochemical
The target of assay [1] is Streptomyces avermitilis (4-hydroxyphenyl)pyruvate dioxygenase (Sav HppD) variant Az1 V189A F216A P243A N245Q Q255A L367I, SEQ ID NO: 2 (Streptomyces avermitilis, UniProt Q53586, F216A/L367I/N245Q/P243A/Q255A/V189A). Briefly: Kinetic analysis of 1NF azidation by purified Sav HppD Az1 (anaerobic, GCMS product quantification). Particulars: Az1 vs wt. As to the method: (§1) FIG. 10 is a series of plots which summarize kinetics for non-heme iron enzyme mediated azidation reactions. The leftmost plot provides kinetics data for wild-type Sav HppD. The middle plot provides kinetics data for Az1 Sav HppD. The rightmost plot provides kinetics data for Az2 Sav HppD.
Streptomyces avermitilis (4-hydroxyphenyl)pyruvate dioxygenase (Sav HppD) variant Az1 V189A F216A P243A N245Q Q255A L367I, SEQ ID NO: 2, sequence (Q53586 whole entry V189A/F216A/P243A/N245Q/Q255A/L367I): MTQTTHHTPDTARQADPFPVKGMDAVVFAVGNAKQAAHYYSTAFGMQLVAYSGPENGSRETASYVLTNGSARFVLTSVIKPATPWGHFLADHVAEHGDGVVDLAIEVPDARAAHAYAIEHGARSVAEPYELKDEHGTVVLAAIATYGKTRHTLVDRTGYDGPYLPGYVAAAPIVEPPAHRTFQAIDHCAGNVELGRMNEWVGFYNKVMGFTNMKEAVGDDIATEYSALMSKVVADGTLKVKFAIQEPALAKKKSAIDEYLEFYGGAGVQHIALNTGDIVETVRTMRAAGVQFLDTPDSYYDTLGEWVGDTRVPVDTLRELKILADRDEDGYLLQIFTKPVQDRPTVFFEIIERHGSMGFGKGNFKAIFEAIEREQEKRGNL
(§2) Protein expression was conducted following the protocols detailed in section (B). E. coli cells expressing non-heme iron enzyme variants were pelleted (4,000×g, 5 min, 4° C.) and stored at −20° C. for at least 24 hours. The cell pallet was then resuspended in 50 mM KPi buffer containing 100 mM NaCl and 20 mM imidazole (pH 7.5 at 25° C.) (10 mL buffer per gram of cell pellet). […] Fractions containing purified proteins were detected by SDS-PAGE, pooled and concentrated using Millipore® centrifugal filter. […] Final concentration was measured by absorbance at 280 nm using a NanoDrop spectrophotometer. The theoretical extinction coefficients (M^−1 cm^−1) used for Say HppD and its variants were calculated using ExPASy Bioinformatics Resources Portal. […]
(§3) Kinetic analyses for wild-type Sav HppD, Az1, and Az2 mediated 1NF azidation were performed in an anaerobic chamber. […] After centrifugation at 12,000 rpm for 10 mins, an aliquot (200 μL) of the organic layer was taken for GCMS analysis for product quantification.

Assay [2] concerns the target Streptomyces avermitilis (4-hydroxyphenyl)pyruvate dioxygenase (Sav HppD) variant Az2 V189A N191A S230L P243G N245F Q255P L367I, SEQ ID NO: 3 (Streptomyces avermitilis, UniProt Q53586, L367I/N191A/N245F/P243G/Q255P/S230L/V189A). Briefly: Kinetic analysis of 1NF azidation by purified Sav HppD Az2 (anaerobic, GCMS product quantification). Particulars: comparator not given. Here is the method: as §1, §2, §3

Assay [3] can be described thus: Replacement of azide with other halide or pseudohalide anions, Sav HppD Az1 cell lysate. As to the method:
We also tried to extend the scope of N-radical precursors and replace azide with other halide or pseudohalide anions, the results of which analyses are summarized in TABLE 5. For these analyses. ferrous ammonium sulfate (10 μL, 100 mM in water), sodium halide or pseudohalide solution (10 μL, 1 M in water), and N-fluoroamide substrate 1NF (10 μL, 400 mM in DME) were added to a 2 mL vial containing Sav HppD Az1 cell lysate (400 μL, obtained from OD600=20 cell suspension) in an anerobic chamber. The vial was capped and shaken at 680 rpm at room temperature for 24 hours. At the end of the reaction, the vial was opened and the reaction was quenched with 0.8 mL of a hexanes/ethylacetate solution (4:6 v/v) of internal standard 1,2,3-trimethoxybenzene (0.5 mM final concentration). The reaction mixture was transferred to a 2 mL microcentrifuge tube, vortexed (10 seconds, 3 times), then centrifuged (14,000×g, 5 min) to completely separate the organic and aqueous layers. […]

Setting [4] is: Sav HppD Az1 cell lysate (OD600=20), 1NF, GCMS peak area over internal standard, 24 hours.

Like-named read-outs stand apart in the source and are kept apart here.

Streptomyces avermitilis (4-hydroxyphenyl)pyruvate dioxygenase (Sav HppD) variant Az2 V189A N191A S230L P243G N245F Q255P L367I, SEQ ID NO: 3, sequence (Q53586 whole entry V189A/N191A/S230L/P243G/N245F/Q255P/L367I): as the sequence (Q53586 whole entry V189A/F216A/P243A/N245Q/Q255A/L367I) above, with N191A, A216F, S230L, A243G, Q245F, A255P counted along it

With `CCc1ccccc1C(=O)N(F)C(C)(C)C` [1NF, N-(tert-butyl)-2-ethyl-N-fluorobenzamide], in assay [1], the “increase in KM over the wild-type enzyme” value is 1.7 fold and the “increase in kcat over the wild-type enzyme” value stood at 4.1 fold. In assay [2], the “decrease in KM” value was 6.6 fold and the decrease in kcat is listed as 9 fold.
Consider `[Br-].[Na+]` [NaBr], for which, in assay [3] (setting [4]), the IA/internal was determined as 2.4 and the IF/internal worked out at 0.04.
In assay [3], `[Cl-].[Na+]` [NaCl] showed an IA/internal of 2.3 and an IF/internal of 0.04.
In assay [3] (setting [4]), `[F-].[Na+]` [NaF] registered an IA/internal of 2.5 and an IF/internal of 0.04.
In assay [3], `O=N[O-].[Na+]` [NaNO2] returned an IA/internal of 1.9 and an IF/internal of 0.03.
For `N#C[O-].[Na+]` [NaOCN], in assay [3] (setting [4]), the IA/internal is on record as 2.1 and the IF/internal was found to be 0.03.
In assay [3] (setting [4]), `N#C[S-].[Na+]` [NaSCN] had an IA/internal of 2.7 and an IF/internal of 0.05.
